In PMC7179167 (Molecules, 2020):
Where two headings read alike, the source gives them in different places.

Assays:
B. subtilis (ATCC 6633) = assay: Disk diffusion antimicrobial test, B. subtilis; type: cell-based, Bacillus subtilis; conditions: 20 mg per disc (title), concentration 20 µg (footnote); for zone of inhibition at 20 µg/disc: Bacillus subtilis, ATCC6633, Gram-positive
Method: (§1) The newly synthesized compounds were chosen to be evaluated in vitro towards a variety of pathogenic microorganisms; Gram-positive bacteria: S. aureus (ATCC 6538) and B. subtilis (ATCC 6633); Gram-negative bacteria: P. areuginosa (ATCC 27853) and E. coli (DSMZ 1058); yeast: C. albicans (ATCC 10231) and S. cerevisiae (ATCC 9080) and fungi: A. niger (NRRL A-326) using the disk diffusion method at a single dose of 20 µl. The results are shown in Table 1 as the growth inhibition zone (mm).
(§2) The antimicrobial activity of target compounds were evaluated to be in vitro against a variety of pathogenic microorganisms, namely Staphylococcus aureus (ATCC 6538), Bacillus subtilis (ATCC 6633) (Gram-positive bacteria), Pseudomonas areuginosa (ATCC 27853), Escherichia coli (DSMZ 1058) (Gram-negative bacteria), Candida albicans (ATCC 10231), Saccharomyces cerevisiae (ATCC 9080) (Yeast) and Aspergillus niger (NRRL A-326) (Fungi) using the disk diffusion method at a single dose of 20 µg. The microorganisms were served and obtained from the Microbial Biotechnology Department, National Research Center, Giza, Egypt. Amphotericin, amoxicillin and ciprofloxacin were used as reference drugs (Oxoid™ Disks). The tested compounds 11a–c, 12a–c, 13a–i, 14a–i and 15a,b were dissolved in dimethylsulphoxide (DMSO) at a concentration of 1 mg/mL. Aliquots of 20 μl were soaked on filter paper discs (6 mm) and dried at room temperature under sterilized conditions. The paper discs were placed on inoculated agar plats and then incubated for 24 h at 37 °C for bacterial strains and after 48–72 h incubation at 30 °C for fungi. Both bacterial and yeast strains were grown on nutrient agar medium (g/l): beef extract, 3; peptone, 10 and agar, 20 at pH of 7.2. The fungal strain was grown on Czapek-Dox medium (g/l): sucrose, 30; NaNO3, 3; MgSO4.7H2O, 0.5l; KCl, 0.5; FeSO4, 0.01; K2HPO4, 1 and agar, 20 at pH of 6.0.

[1] = DPPH free radical scavenging assay; type: biochemical; conditions: concentration of 20µg/l, mean ± SD of three experiments
Method: Antioxidant activity of the newly synthesized 13a–i, 14a–i, 11a–c and 12a–c were assessed in terms of hydrogen-donating or radical-scavenging ability via the stable free radical 1,1-diphenyl-2-picrylhydrazyl (DPPH) using ascorbic acid as a reference at a concentration of […].
The free radical scavenging activity (RSA) was assessed spectrophotometically at 517 nm via decoloration of the solution of the DPPH (1,1-diphenyl-2-picrylhydrazyl) radical according to Brand-Williams et al. 1995 [32]. DPPH solution was prepared by dissolving of 20 mg of DPPH in one liter of dimethylsulphoxide (DMSO). A freshly prepared DPPH solution was used for the assay. Each of the tested compounds 11a–c, 12a–c, 13a–i, 14a–i and 15a,b were dissolved in DMSO (1mg/mL). A volume of […] of a DMSO stock solution of the test compounds was added to 2 mL of freshly prepared DPPH in DMSO solution. The mixtures were shaken in a vortex (2500 rpm) for 1 min and then left to stand for 15, 30, 45 and 60 min in the dark room. The absorbance was measured at 517 nm against blank using UV visible spectrophotometer 2401 PC (Shimadzu, Kyoto, Japan). Lower absorbance of the reaction mixture indicated higher free radical scavenging activity was analyzed from the graph plots of the inhibition percentage against the compound concentration. The experiment was carried out in triplicate and averaged. The scavenging activity was calculated according to the following formula:Scavenging ability (%) = (A517 of control - A517of sample / A 517 of control) ×100(1)

S. aureus (ATCC 6538) = assay: Disk diffusion antimicrobial test, S. aureus; type: cell-based, Staphylococcus aureus; conditions: 20 mg per disc (title), concentration 20 µg (footnote); for zone of inhibition at 20 µg/disc: Staphylococcus aureus, ATCC6538, Gram-positive
Method: as §1, §2

C. albicans (ATCC 10231) = assay: Disk diffusion antimicrobial test, C. albicans; type: cell-based, Candida albicans; conditions: yeast, 20 mg per disc (title), concentration 20 µg (footnote); for zone of inhibition at 20 µg/disc: Candida albicans, ATCC10231, disk diffusion
Method: as §1, §2

[2] = test system: normal skin fibroblast cells (BJ-1); assay: MTT cytotoxicity assay, normal skin fibroblast BJ-1; type: cell-based; conditions: Homo sapiens, 48 h, read-out: Growth Inhibition (%) BJ-1
Method: (§3) MCF-7 (human breast cancer), HCT-116 (human colon cancer) and HepG2 (human liver cancer) cell lines were obtained from Karolinska Institute, Stockholm, Sweden. All cells were maintained in RPMI 1640 medium. The media were supplemented with 10% heat-inactivated fetal bovine serum plus 1% antibiotic-antimycoticmixture (10,000 U/mL of potassium penicillin, 10,000 μg/mL of streptomycin sulfate, 25 μg/mL of amphotericin B and 1% of L glutamine (Biowest, USA)). BJ-1 of a human skin fibroblast derived from normal foreskin was obtained from ATCC® CRL-2522™ as a frozen ampoule with about 1 × 10^6 cells per 1 ml volume. BJ-1 was maintained in MEM with 2 mM of L-glutamine and Earle’s salts medium.
(§4) Cell viability was studied using the MTT 3-(4,5-dimethylthiazol-2-yl)-2,5-diphenyl-tetrazolium bromide (Bio Basic Canada Inc. Toronto, Canada) assay [33]. The steps were executed in a sterile laminar air flow cabinet biosafety class II level (Baker, SG403INT; Sanford, ME, USA). All incubations were carried out at 37 °C in a 5% CO2 incubator under a humidified atmosphere of 95% (Sheldon, TC2323; Cornelius, OR, USA). Cells were seeded into 96-well microtiter plastic plates at a concentration of (10^4 cells/well) and allowed to adhere for 24 h. The medium was aspirated and then added to the cells with the test compounds 11a–c, 12a–c, 13a–i, 14a–i and 15a,b at a single dose of 100 μg/mL in DMSO. After incubation of the medium for 48 h, 40 μL of MTT salt (2.5 μg/mL) was added to each well and then incubated for an additional 4 h. To stop the reaction and dissolve any formed formazan crystals, 200 μL of 10% sodium dodecyl sulfate (SDS) were added to each well and incubated overnight at 37 °C. The amount of formazan product was measured at 595 nm with a reference wavelength of 690 nm as a background using a microplate reader (Bio-Rad Laboratories, model 3350, California, USA). For the untreated cells (negative control), the medium was added instead of the tested compounds. […] Dimethylsulfoxide (DMSO) was the vehicle used for dissolution of the testing compound, and its final concentration on the cells was less than 0.2%. At the same dilution, the solvent concentration was the same for all drugs and between the control and drug treatments.

[3] = test system: S. cerevisiae (ATCC 9080); assay: Disk diffusion antimicrobial test, S. cerevisiae; type: cell-based; conditions: Saccharomyces cerevisiae, ATCC9080, yeast, 20 mg per disc (title), concentration 20 µg (footnote)
Method: as §1, §2

[4] = test system: MCF-7 (human breast cancer); assay: MTT cytotoxicity assay, MCF-7; type: cell-based; conditions: MCF7, 100 µg/ml, 48 h, read-out: Growth Inhibition (%) MCF-7
[5] = test system: HCT-116 (human colon cancer); assay: MTT cytotoxicity assay, HCT-116; type: cell-based; conditions: Homo sapiens, HCT-116, 100 µg/ml, 48 h, read-out: Growth Inhibition (%) HCT-116
Method: as §3, §4

[6] = test system: P. aeruginosa (ATCC 27853); assay: Disk diffusion antimicrobial test, P. aeruginosa; type: cell-based, Pseudomonas areuginosa; conditions: Pseudomonas aeruginosa, ATCC27853, Gram-negative, 20 mg per disc (title), concentration 20 µg (footnote)
Method: as §1, §2

[7] = 15 min, read-out: Scavenging Activity (%) on DPPH radicals at 15 min
[8] = 30 min, read-out: Scavenging Activity (%) on DPPH radicals at 30 min
[9] = 45 min, read-out: Scavenging Activity (%) on DPPH radicals at 45 min
[10] = 60 min, read-out: Scavenging Activity (%) on DPPH radicals at 60 min

Compound	Inhibition Zone (mm), B. subtilis (ATCC 6633) (B. subtilis (ATCC 6633); Gram-positive) [mm]	inhibition [1, 7] [%]	inhibition [1, 8] [%]	inhibition [1, 9] [%]	inhibition [1, 10] [%]	Inhibition Zone (mm), S. aureus (ATCC 6538) (S. aureus (ATCC 6538); Gram-positive) [mm]	Inhibition Zone (mm), C. albicans (ATCC 10231) (C. albicans (ATCC 10231); disk diffusion) [mm]	zone of inhibition at 20 µg/disc (B. subtilis (ATCC 6633)) [mm]	zone of inhibition at 20 µg/disc (S. aureus (ATCC 6538)) [mm]	melting point [°C]	inhibition at 100 µg/mL [2] [%]	zone of inhibition at 20 µg/disc [3] [mm]	inhibition at 100 µg/mL [4] [%]	inhibition at 100 µg/mL [5] [%]	zone of inhibition at 20 µg/disc [6] [mm]	zone of inhibition at 20 µg/disc (C. albicans (ATCC 10231)) [mm]
3-(6-Hydroxy-4,6-dimethoxybenzofuran-5-yl)quinoline-4-carboxylic acid [Compound 15b]	10	23.6 ± 1.36	32.7 ± 1.13	39.2 ± 1.29	47.5	8	8	–	–	–	–	–	–	–	–	–
CC1(C)S[C@@H]2[C@H](NC(=O)[C@H](N)c3ccc(O)cc3)C(=O)N2[C@H]1C(=O)O [Amoxicillin, amoxicillin, reference compound]	–	–	–	–	–	–	–	28.4	25.6	–	–	–	–	–	–	–
CCOc1cc2occc2c(OC)c1C1=NNC2(C1)C(=O)Nc1ccccc12 (stereo not drawn) [Compound 11c, 5’-(6-Ethoxy-4-methoxy-benzofuran-5-yl)-2’,4’-dihydrospiro(indoline-3,3’-pyrazol)-2-one]	–	40.6 ± 1.28	40.6 ± 1.81	40.6 ± 1.67	40.6 ± 1.35	–	–	10	–	137 to 139	45.2	25	0	30.2	10	25
CCOc1c(C2=NNC3(C2)C(=O)Nc2ccccc23)c(OC)c2ccoc2c1OC (stereo not drawn) [Compound 12c, 5’-(6-Ethoxy-4,7-dimethoxy-benzofuran-5-yl)-2’,4’-dihydrospiro(indoline-3,3’-pyrazol)-2-one]	–	9.76 ± 1.76	10.2 ± 1.26	11.4 ± 1.53	14 ± 1.55	–	–	18	10	–	62.3	10	6.3	12.4	20	10
